Experiments:
[1] = Strength assessments and patient-reported quality-of-life outcomes; type: in vivo, human; design: RAND – Emotional well-being: scale not given here; details: for Grip Strength Evaluation: baseline 15+/-12; for PROMIS – Mobility Item Bank T score (higher = better): baseline 38+/-7; for RAND – Role limitations due to physical health problems: baseline 44+/-13; for RAND SF-36 Physical Functioning (0-100, higher better): baseline 46+/-19; for RAND – Energy/Fatigue: baseline 50+/-29; for RAND – Bodily Pain: baseline 52+/-29; for PROMIS – Fatigue 8A Short Form T score (higher = increased fatigue): baseline 55+/-8; for PROMIS – Pain Interference 8A short form T score (higher = increased pain interference): baseline 56+/-4; for RAND – Social functioning: baseline 59+/-37; for RAND – General health perceptions: baseline 60+/-11; for RAND – Emotional well-being: baseline 67+/-15; for RAND – Role limitations due to emotional health problems: baseline 67 +/-27; for Pinch Test: baseline 6.8 +/-4; for 5x Sit to stand: baseline 15+/-7; for DASH score (0 no disability, 100 severe disability): baseline 16+/-5
Method: (§1) Safety, tolerability, and efficacy were evaluated during in‐person visits every 4 weeks at the NIH Clinical Center and included a physical exam, ophthalmologic exam, patient‐reported outcome measures and strength assessments. The Disabilities of Arm Shoulder and Hand Outcome Measurement (DASH) questionnaire was used to measure self‐reported upper extremity symptoms and disability. The RAND 36‐item Short Form Health Survey (RAND SF‐36) version 1.0 was performed to determine effects of infigratinib on health‐related quality of life over the duration of the study. Patient Reported Outcomes Measurement Information System (PROMIS) item banks for fatigue (PROMIS SF v1.0‐Fatigue 8a), mobility (PROMIS Bank v2.0 – Mobility), and pain interference (PROMIS SF v1.1‐Pain Interference 8a) were also performed. Strength assessments included a Six‐Minute Walk Test, Grip Strength assessment, Pinch Strength assessment, and Five Time Sit to Stand. The Grip Strength assessment was performed on the dominant hand using a JAMAR Hand Dynamometer (Sammons Preston, Inc., Bolingbrook, IL, USA) and three successive trials were averaged to determine the final score. The Pinch Strength assessment was performed using the Exacta Hydraulic Pinch Gauge (North Coast Medical, Inc., Morgan Hill, CA, USA) with three successive trials averaged for the final score.

[2] = 24-hour pharmacokinetics after the first oral dose of infigratinib 75 mg in patients with TIO; type: in vivo; details: human, blood
Method: (§2) Serial sampling was performed every 2 hours for 24 hours after the first dose of infigratinib to evaluate the pharmacokinetics and pharmacodynamics of the drug. Subsequently, laboratory tests were performed every 2 weeks. Routine blood and urine chemistries were performed at the NIH Clinical Center Department of Laboratory Medicine during inpatient stays and outpatient visits. Laboratory testing in the intervening weeks were performed either at the NIH or at a local laboratory, depending on the patient's proximity to the NIH. Infigratinib levels were also measured at weeks 4 and 8.
(§3) Biochemical testing included measurement of routine chemistries, 1,25D (radioimmunoassay; Mayo Medical Laboratories, Rochester, MN, USA), cFGF23 (ELISA; Immutopics International, San Clemente, CA, USA; Mayo Medical Laboratories), iFGF23 (ELISA; Immutopics International), C‐telopeptide (CTx) (electrochemiluminescence immunoassay; Mayo Medical Laboratories), and procollagen 1 intact N‐terminal (P1NP) (competitive radioimmunoassay; Mayo Medical Laboratories). Infigratinib levels were measured by Q2 Lab Solutions (Durham, NC, USA).

PMT metastases = system: PMT metastases; design: method as in PMID 32905668; details: one patient with metastatic TIO, while on therapy, cited from earlier work
[3] = Safety and adverse events (CTCAE) in the phase 2 TIO trial; type: in vivo, human
Method: as §1
The primary objective of the study was to induce a persistent metabolic remission, defined by normalization of FGF23 and phosphate after study drug discontinuation. Secondary objectives included evaluating the effects of infigratinib on mineral homeostasis, radiographic appearance of PMTs, quality of life, and muscle strength. Key biochemical end points included changes in iFGF23, cFGF23, phosphate, 1,25D, TRP, and TmP/GFR. Because the study closed prematurely with only four patients enrolled, results were primarily descriptive. Adverse events were summarized by frequency and percentage. Continuous variables were presented as mean ± standard deviation (SD). Linear mixed effects models were fitted to the repeated measures data collected from the 24‐hour serial sampling and the first 8 weeks of therapy when the patients were on the same infigratinib dose (75 mg daily) because, after this point, dose reductions and interruptions occurred. Analysis was performed using SAS (version 9.4; SAS Institute, Inc., Cary, NC, USA). Graphs were produced using GraphPad Prism 8 (GraphPad Software, Inc., La Jolla, CA, USA).

[4] = system: phosphaturic mesenchymal tumors; experiment: 18F-FDG-PET/CT and 68Ga-DOTATATE-PET/CT of tumors before and after infigratinib; type: in vivo, human
Method: In patients with identifiable tumors, recent prior imaging was obtained from the patient record. The imaging studies that best characterized their tumor prior to therapy (18Flouride‐Fluorodeoxyglucose (FDG) DG‐PET/CT and/or 68Gallium (68Ga)‐DOTATATE‐PET/CT) were repeated at the 24‐week visit, if clinically indicated, and the changes were assessed.

[5] = system: FGF23 (intact and C-terminal), blood phosphate; experiment: Biochemical response (iFGF23, cFGF23, phosphate, 1,25D, TRP) in patients with TIO on daily infigratinib; type: in vivo, human
Method: Subjects received oral daily doses of infigratinib for up to 24 weeks. The initial dose of 75 mg daily was based on studies investigating infigratinib use in subjects with cholangiocarcinoma, as well as our clinical experience with two NIH patients with TIO who had previously participated in an infigratinib trial outside of the NIH (ClinicalTrials.gov NCT02160041). After 8 weeks on therapy, dose escalation and de‐escalation of drug was determined by investigators based on tolerability and changes in C‐terminal FGF23 (cFGF23) levels. Planned dose escalation would occur by 25 mg every 8 weeks to a maximum dose of 125 mg/d if cFGF23 levels were not suppressed to <100 relative units (RU)/mL. De‐escalations or interruptions would occur if a subject experienced an adverse event, including hyperphosphatemia. A cFGF23 assay that measures both the active intact FGF23 molecule and inactivated C‐terminal fragments was used for titration purposes rather than an intact FGF23 (iFGF23) assay because the cFGF23 assay was the only commercially available option at the time.
as §2, §3
Tubular reabsorption of phosphate (TRP) was calculated using the following equation: 100 × [1 – (urine phosphate × serum creatinine)/(serum phosphate × urine creatinine)] and maximum renal tubular phosphate reabsorption in mass per unit volume of glomerular filtrate (TmP/GFR) was determined using the following equations: for TRP ≤0.86 (86%): TmP∕GFR = TRP × phosphate; for TRP >0.86 (86%): TmP∕GFR = (0.3 × TRP)/[1 − (0.8 × TRP)] ×phosphate.^( [20] ^)
At the end of week 24, patients still on therapy were admitted again to the NIH Clinical Center to monitor off‐drug effects with daily blood and urine sampling × 7 days. Subjects with persistent biochemical remission after 7 days would be monitored as outpatients off therapy for 12 additional weeks. Subjects with normal phosphate levels on infigratinib but without persistent biochemical response on cessation were considered for an optional extension phase.

[6] = design: method as in earlier work; details: subjects with cholangiocarcinoma; no reactions above grade 2; cited from earlier work
[7] = Subject 1, single oral dose 75 mg
[8] = Subject 2, single oral dose 75 mg
[9] = Subject 3, single oral dose 75 mg
[10] = Subject 4, single oral dose 75 mg
[11] = Subject 2, 75 mg then 50 mg daily, up to 24 weeks

## CCN1CCN(c2ccc(Nc3cc(N(C)C(=O)Nc4c(Cl)c(OC)cc(OC)c4Cl)ncn3)cc2)CC1 [Infigratinib]
[1]; 8 Weeks, N=4, mean+/-SD
  Grip Strength Evaluation: 18+/-9 kilograms
[1]; 8 Weeks
  PROMIS – Mobility Item Bank T score (higher = better): 39+/-5
  RAND – Role limitations due to physical health problems: 68+/-31
  RAND SF-36 Physical Functioning (0-100, higher better): 51+/-17
  RAND – Energy/Fatigue: 53+/-22
  RAND – Bodily Pain: 63+/-37
  PROMIS – Fatigue 8A Short Form T score (higher = increased fatigue): 53+/-8
  PROMIS – Pain Interference 8A short form T score (higher = increased pain interference): 52+/-6
  RAND – Social functioning: 78+/-21
  RAND – General health perceptions: 73+/-17
  RAND – Emotional well-being: 72+/-13
  RAND – Role limitations due to emotional health problems: 75+/-32
[1]; 8 Weeks, mean+/-SD
  Pinch Test: 6.8 +/-1 kilograms
  5x Sit to stand: 14 ± 1 s
  DASH score (0 no disability, 100 severe disability): 14+/-5
[1]; 24 Weeks, N=4, mean+/-SD, baseline 474+/-250, normal range 391-751
  6 Minute Walk Test: 474+/-250 496+/-173 meters
[1]; 24 Weeks
  PROMIS – Mobility Item Bank T score (higher = better): 39+/-3
  RAND – Role limitations due to physical health problems: 25+/-50
  RAND SF-36 Physical Functioning (0-100, higher better): 40+/-6
  RAND – Energy/Fatigue: 49+/-33
  RAND – Bodily Pain: 36+/-2.5
  PROMIS – Fatigue 8A Short Form T score (higher = increased fatigue): 52+/-9
  PROMIS – Pain Interference 8A short form T score (higher = increased pain interference): 53+/-9
  RAND – Social functioning: 72+/-33
  RAND – General health perceptions: 71+/-18
  RAND – Emotional well-being: 62+/-10
  RAND – Role limitations due to emotional health problems: 41.7+/-50
[1]; 24 Weeks, mean+/-SD
  Pinch Test: 7+/-1 kilograms
  5x Sit to stand: 11 ± 1 s
  Grip Strength Evaluation: 16+/-1 kilograms
  DASH score (0 no disability, 100 severe disability): 12+/-8
[2]; [7]
  AUC: 0.0897 µg·h/mL
  Cmax: 0.0286 µg/mL
  Tmax: 2 h
  half-life: 2.73 h
[2]; [8]
  AUC: 1.09 µg·h/mL
  Cmax: 0.176 µg/mL
  Tmax: 2 h
  half-life: 7.75 h
[2]; [9]
  AUC: 0.133 µg·h/mL
  Cmax: 0.0238 µg/mL
  Tmax: 4 h
  half-life: 3.02 h
[2]; [10]
  AUC: 0.764 µg·h/mL
  Cmax: 0.0679 µg/mL
  Tmax: 6 h
  half-life: 7.62 h
PMT metastases
  FGF23 change: significant decreases in FGF23
PMT metastases; reversed with cessation
  Tumor burden: profound reduction in tumor burden
[3]; 4 subjects
  Serious adverse events: No subjects experienced serious adverse events
  Total Number of Adverse Events: 111
[3]; both improved following drug interruption
  Grade 3 AEs (CTCAE): increased alanine aminotransferase and decreased neutrophil count in subject 2
[3]; continuous daily dosing, drug interruptions required in two patients
  Corneal keratitis with blurred vision: all patients developed corneal keratitis with blurred vision
[3]; in vivo
  Time to normalization of vision after infigratinib discontinuation: ≤ 60 days
[3]; of 111 AEs
  Number of AEs considered possibly, probably, or definitely related to infigratinib: 87
[3]; subjects who developed ocular keratitis on infigratinib
  Corneal scarring, share of subjects: 50%
[4]; Subjects 1 and 2, after 6 months
  Tumor size change after treatment: without appreciable change in size
[4]; all studies except Subject 1 68Ga scans
  Reduction of SUVmax of the PMTs after treatment: greater than 40%
[5]; 75 mg daily, by week 8
  TRP change: increased in all patients
[5]; [11]
  cFGF23 decrease from baseline: 89%
  iFGF23 decrease from baseline: 95%
[5]; Subject 2, first 24 hours after first 75 mg dose
  Reduction in cFGF23: 82%
[5]; Subject 2, neither intact nor C-terminal FGF23 ever normalized
  Biochemical response while on therapy: significant biochemical response
[5]; Subject 2, normal <54 pg/mL
  iFGF23 nadir: 171 pg/mL
[5]; Subject 2, normal <180 RU/mL
  cFGF23 nadir: 241 RU/mL
[5]; Subjects 1, 3 and 4, reversed rapidly with drug cessation
  Metabolic response while on therapy: complete metabolic response
[5]; all patients, 75 mg daily, week 8
  Biochemical response: partial biochemical response
[5]; first 24 hours after first 75 mg dose, p < 0.0001, none exceeded lower limit of normal at hour 24
  Phosphate levels change: increased
[5]; first 24 hours after first 75 mg dose, p < 0.001
  iFGF23 change: decreased significantly
[5]; four TIO patients, up to 24 weeks daily oral
  Enduring metabolic remission (persistently normal FGF23 and blood phosphate following drug discontinuation), primary objective: no subject achieved the primary objective
[6]
  Blurred vision, share of patients: 21%
  Dry eye, including keratitis, share of patients: 44%

Source: article PMC9382865, “Infigratinib Reduces Fibroblast Growth Factor 23 (FGF23) and Increases Blood Phosphate in Tumor‐Induced Osteomalacia” (JBMR Plus, 2022)
